Entries after “also recorded” stand apart in the source; their conditions may differ.
What was measured:
KC6141 cells [1] = assay: L-Amino acid assay; assay type: cell-based, mouse; details: 0.5 mM glucose, 24 hrs; for amino acid content: KC6141 cells on ECM
Protocol: Extracellular Matrix (ECM) Preparation. Skin fibroblasts were seeded on 6/12/96-well plates. One day after plating, cells were switched into DMEM (with pyruvate) with 10% dialysed FBS supplemented with or without 500 μM ^3H-proline and 100 μM Vitamin C. Cells were cultured for 6 days with media renewal every 24 h. After six days, skin fibroblasts were removed by washing in 1 ml or 500 μl or 100 μl per well PBS with 0.5% (v/v) Triton X-100 and 20 mM NH4OH. ECM was washed five times with PBS before plating KC6141 cells. The following day, KC6141 cells were switched into the indicated medium for 24 or 72 hrs.
L-Amino Acid Assay. Total amount of free L-amino acids (except for glycine) were measured by L-Amino Acid Assay Kit (Colorimetric) (antibodies) according to manufacturer's protocol. Briefly, KC6141 cells were grown on 6-well plates coated with or without ECM and treated as above. The cells were resuspended at 10^6 cells/mL 1× Assay Buffer and were homogenized on ice and then centrifuged to remove debris. 50 μL of each L-Alanine standard or cell lysis was added into wells of a 96-well microtiter plate. Then 50 μL of Reaction Mix was added to each well. The well contents were mixed thoroughly and incubated for 90 minutes at 37° C. protected from light. The plate was read with a spectrophotometric microplate reader in the 540-570 nm range. The concentration of L-Amino Acids was calculated within samples by comparing the sample OD to the standard curve.

KC6141 tumors = assay: s.c. tumors in C57BL/6 mice; assay type: in vivo, mouse; details: EIPA 7.5 mg/kg, MRT68921 10 mg/kg, 21 days (3 weeks)
Protocol: To evaluate the effects of MP on tumor growth in the autochthonous model, Kras^G12D;Ikkα^Δpan mice, at 4 weeks of age, were treated with vehicle or 10 mg/kg EIPA (Sigma) by intraperitoneal injection every other day for 1 month. After that, surgically removed pancreata were weighed and used for further analysis. To evaluate the effects of MP on heterotopic xenografts, female homozygous BALB/c Nu/Nu nude mice were injected subcutaneously (s.c.) in both flanks at 7 weeks of age with 10^6 parental and IKKα KO MIA PaCa-2 cells mixed at a 1:1 dilution with BD Matrigel (BD Biosciences) in a total volume of 100 μl. Mice were treated with EIPA (7.5 mg/kg) for 15 days when tumors attained an average volume of 50-100 mm^3. As a control, animals treated with vehicle (DMSO in PBS) were used. Volumes (1/2×(width^2×length)) of s.c. tumors were calculated on the basis of measurements using digital calipers after 15 days of treatment. […] Tumor volumes were calculated as above.
In some embodiments, to evaluate the effects of MP on tumor growth or survival in the autochthonous model, Kras^G12D;Ikkα^ΔPEC mice, at 4 weeks of age, were treated with vehicle or 10 mg/kg EIPA (Sigma) by i.p. injection every other day for 1 month. […] Volumes (1/2×(width^2×length)) of s.c. tumors were calculated on the basis of measurements using digital calipers after 15 days of treatment. […] Tumor volumes were calculated as above.

human PDAC 1334 tumors = assay: s.c. tumors in nude mice; assay type: in vivo, mouse; details: EIPA 7.5 mg/kg, MRT68921 10 mg/kg, 15 days
Protocol: (§1) In some embodiments, to evaluate the effects of MP on tumor growth or survival in the autochthonous model, Kras^G12D;Ikkα^ΔPEC mice, at 4 weeks of age, were treated with vehicle or 10 mg/kg EIPA (Sigma) by i.p. injection every other day for 1 month. After that, surgically removed pancreata were weighed and used for further analysis and other mice were continued to maintain for survival. To evaluate the effects of MP on heterotopic xenografts, female homozygous BALB/c Nu/Nu nude mice were injected subcutaneously (s.c.) in both flanks at 7 weeks of age with 10^6 parental and IKKα^Δ MIA PaCa-2 cells or 1334 and 1444 cells mixed at a 1:1 dilution with BD Matrigel (BD Biosciences) in a total volume of 100 μl. Mice were treated with vehicle (DMSO in PBS), EIPA (7.5 mg/kg), MRT68921 (10 mg/kg) or MRT68921 and EIPA for 15 days when tumors attained an average volume of 50-100 mm^3. Volumes (1/2×(width^2×length)) of s.c. tumors were calculated on the basis of measurements using digital calipers after 15 days of treatment. To evaluate the combination effects of autophagy and MP inhibition on tumor growth, C57BL/6 mice were injected s.c. at 7 weeks of age with 10^6 parental, Ikkα KD, Nhe1 KD or Ikkα+Nhe1 DKD KC6141 cells in a total volume of 100 μl. Mice were treated with or without vehicle, EIPA (7.5 mg/kg), MRT68921 (10 mg/kg), or EIPA and MRT68921 for 21 days when tumors attained an average volume of 50-100 mm^3. Tumor volumes were calculated as above.

human PDAC 1444 tumors = assay: s.c. tumors in nude mice; assay type: in vivo, mouse; details: EIPA 7.5 mg/kg, MRT68921 10 mg/kg, 15 days
Protocol: as §1

KC6141 cells [2] = assay: BrdU incorporation (immunofluorescence); assay type: cell-based, mouse; details: 0.5 mM glucose, 24 hrs; for BrdU incorporation (cell proliferation): KC6141 cells on ECM
KC6141 cells [3] = assay: NADPH/NADP measurement; assay type: cell-based, mouse; details: 0.5 mM glucose, 24 hrs; for NADPH to NADP ratio: KC6141 cells on ECM
Protocol: Extracellular Matrix (ECM) Preparation. Skin fibroblasts were seeded on 6/12/96-well plates. One day after plating, cells were switched into DMEM (with pyruvate) with 10% dialysed FBS supplemented with or without 500 μM ^3H-proline and 100 μM Vitamin C. Cells were cultured for 6 days with media renewal every 24 h. After six days, skin fibroblasts were removed by washing in 1 ml or 500 μl or 100 μl per well PBS with 0.5% (v/v) Triton X-100 and 20 mM NH4OH. ECM was washed five times with PBS before plating KC6141 cells. The following day, KC6141 cells were switched into the indicated medium for 24 or 72 hrs. NADPH/NADP Measurement. NADPH and NADP measurement was performed using NADP/NADPH-Glo™ Assays (Promega #G9081) according to manufacturer's protocol. Briefly, KC6141 cells were grown on 96-well plates coated with ECM and treated as above. Then medium was removed and replaced with 50 μl of PBS and 50 μl of base solution with 1% DTAB. The plate was briefly mixed to ensure homogeneity and cell lysis. 50 μl of each sample was removed to an empty well for acid treatment. 25 μl per well of 0.4N HCl was added into these samples. All samples were incubated for 15 minutes at 60° C. and then equilibrated for 10 minutes at room temperature. 25 μl of 0.5M Trizma® base was added into each well of acid-treated cells to neutralize the acid. 50 μl of HCl/Trizma® solution was added to each well containing base-treated samples. Then 100 μl of NADP/NADPH-Glo™ Detection Reagent was added into each well and incubated for 30 minutes at room temperature. Luminescence was recorded using a luminometer.

CCN(c1nc(N)c(C(=O)N=C(N)N)nc1Cl)C(C)C [EIPA, 5-(N-ethyl-N-isopropyl) amiloride]
amino acid content (KC6141 cells [1]): reduced
amino acid content in p62/NRF2 ablated cells (KC6141 cells [1]; p62 KD or Nrf2 KD KC6141 cells on ECM): ineffective
tumor growth (KC6141 tumors): small effect
tumor growth (human PDAC 1334 tumors): sensitive to EIPA
tumor growth (human PDAC 1444 tumors): small effect
BrdU incorporation (cell proliferation) (KC6141 cells [2]): reduced; also recorded: suppressed cell proliferation in all conditions
BrdU incorporation in NRF2 ablated cells (KC6141 cells [2]; Nrf2 KD KC6141 cells on ECM): ineffective
NADPH to NADP ratio (KC6141 cells [3]): reduced
NADPH to NADP ratio in NRF2 ablated cells (KC6141 cells [3]; Nrf2 KD KC6141 cells on ECM): ineffective

CN1CCc2cc(Nc3ncc(C4CC4)c(NCCCNC(=O)C4CCC4)n3)ccc2C1 [MRT68921]
amino acid content (KC6141 cells [1]): further elevated
tumor growth (KC6141 tumors): small effect
tumor growth (human PDAC 1334 tumors): insensitive to MRT68921
tumor growth (human PDAC 1444 tumors): small effect
BrdU incorporation (cell proliferation) (KC6141 cells [2]): further elevated
BrdU incorporation (cell proliferation) (KC6141 cells [2]; listed as MRT): enhanced cell proliferation in WT, but not in Nrf2 KD KC6141
NADPH to NADP ratio (KC6141 cells [3]): further elevated

From patent US12458630B2, “Combination therapy for cancer” (The Regents of the University of California, priority 2020, dated 2025)
